The values below come from US20030113704A1, “Methods for inactivation of pathogens in biological materials” (priority 2000, published 2003).

Assay [1] concerns Cell-Associated HIV. In words: Viral inactivation in leukoreduced PRBC with Erythrosol (Example 5), cell-associated HIV. It is filed as cell-based, Human Immunodeficiency Virus. The settings on record: red cells, 0.2 mM inactivation compound, 3 mM glutathione, two hours at RT.
The test system of assay [2] is Bovine Viral Diarrhea Virus (BVDV). In words: Viral inactivation in leukoreduced PRBC with Erythrosol (Example 5), BVDV. The settings on record: red cells, 0.1 mM inactivation compound, 1 mM glutathione, two hours at RT. The format is cell-based.
For assay [3], the system named is Listeria monocytogenes. In words: Bacterial inactivation in leukoreduced PRBC with Erythrosol (Example 5), L. monocytogenes. The settings on record: red cells, 0.2 mM compound, 2 mM glutathione, two hours at RT. It is filed as cell-based.
The subject of assay [4] is Staphylococcus aureus. In words: Bacterial inactivation in leukoreduced PRBC with Erythrosol (Example 5), S. aureus. The settings on record: red cells, 0.2 mM compound, 2 mM glutathione, two hours at RT. It is filed as cell-based.
In assay [5] the test system is Staphylococcus epidermidis. In words: Bacterial inactivation in leukoreduced PRBC with Erythrosol (Example 5), S. epidermidis. The format is cell-based. The settings on record: red cells, 0.2 mM compound, 2 mM glutathione, two hours at RT.
In assay [6] the test system is Deinococcus radiodurans. Briefly: Bacterial inactivation in leukoreduced PRBC with Erythrosol (Example 5), D. radiodurans. It is filed as cell-based. The settings on record: red cells, 0.2 mM compound, 2 mM glutathione, two hours at RT.
Assay [7] concerns Serratia marcescens. Briefly: Bacterial inactivation in leukoreduced PRBC with Erythrosol (Example 5), S. marcescens. It is filed as cell-based. The settings on record: red cells, 0.2 mM compound, 2 mM glutathione, two hours at RT.
In assay [8] the test system is Herpes Simplex Virus (HSV). Briefly: Viral inactivation in leukoreduced PRBC with Erythrosol (Example 5), HSV. The format is cell-based. The settings on record: red cells, 0.003 mM inactivation compound, 3 mM glutathione, two hours at RT.
Assay [9] relates to Serratia liquifaciens. Briefly: Bacterial inactivation in leukoreduced PRBC with Erythrosol (Example 5), S. liquifaciens. The settings on record: red cells, 0.2 mM compound, 2 mM glutathione, two hours at RT. The format is cell-based.
For assay [10], the system named is Yersinia enterocolitica. In words: Bacterial inactivation in leukoreduced PRBC with Erythrosol (Example 5), Y. enterocolitica. The format is cell-based. The settings on record: red cells, 0.2 mM compound, 2 mM glutathione, two hours at RT.
Assay [11] deals with Cell-Free HIV. In words: Viral inactivation in leukoreduced PRBC with Erythrosol (Example 5), cell-free HIV. The settings on record: red cells, 0.2 mM inactivation compound, 3 mM glutathione, two hours at RT. It is filed as cell-based, Human Immunodeficiency Virus.
Assay [12] relates to Salmonella choleraesuis. Briefly: Bacterial inactivation in leukoreduced PRBC with Erythrosol (Example 5), S. choleraesuis. It is filed as cell-based. The settings on record: red cells, 0.2 mM compound, 2 mM glutathione, two hours at RT.
In assay [13] the test system is Escherichia coli K12. Briefly: Bacterial inactivation in leukoreduced PRBC with Erythrosol (Example 5), E. coli K12. The format is cell-based. The settings on record: red cells, 0.2 mM compound, 2 mM glutathione, two hours at RT.
Assay [14] relates to Bluetongue type 11 Virus. Briefly: Viral inactivation in leukoreduced PRBC with Erythrosol (Example 5), Bluetongue type 11. The format is cell-based. The settings on record: red cells, 0.2 mM inactivation compound, 2 mM glutathione, two hours at RT.
For assay [15], the system named is Duck Hepatitis B Virus (DHBV). In words: Viral inactivation in leukoreduced PRBC with Erythrosol (Example 5), DHBV. It is filed as cell-based. The settings on record: red cells, 0.1 mM inactivation compound, 3 mM glutathione, two hours at RT.
Assay [16] concerns Pseudomonas aeruginosa. In words: Bacterial inactivation in leukoreduced PRBC with Erythrosol (Example 5), P. aeruginosa. It is filed as cell-based. The settings on record: red cells, 0.2 mM compound, 2 mM glutathione, two hours at RT.
Assay [17] relates to Vesicular Stomatitis Virus type Indiana (VSIV). The format is cell-based.
Assay [18] deals with Bacilus subtilis. In words: Bacterial inactivation in leukoreduced PRBC with Erythrosol (Example 5), B. subtilis. The format is cell-based. The settings on record: red cells, 0.2 mM compound, 2 mM glutathione, two hours at RT.
For assay [19], the system named is Respiratory Synctial Virus (RSV). In words: Viral inactivation in leukoreduced PRBC with Erythrosol (Example 5), RSV. The format is cell-based. The settings on record: red cells, 0.2 mM inactivation compound, 2 mM glutathione, two hours at RT.

Molecules are shown by their SMILES.

Regarding `O=C(CCNc1c2ccccc2nc2ccccc12)OCCN(CCCl)CCCl` [β-alanine, N-(acridin-9-yl), 2-[bis(2-chloroethyl)amino]ethyl ester], the “Log inactivation Cell-Associated HIV” value in assay [1] is given as over 6.2 log. Besides, in assay [2], the “Log inactivation BVDV” value is listed as over 7.3 log. The “Log inactivation Listeria monocytogenes” value in assay [3] is recorded as over 7.1 log. Also, the “Log inactivation Staphylococcus aureus” value in [4] was over 5.1 log. For the same compound, the “Log inactivation Staphylococcus epidermidis” value in [5] is recorded as over 6.9 log. In [6], the “Log inactivation Deinococcus radiodurans” value is on record as over 6.0 log. In assay [7], the “Log inactivation Serratia marcescens” value was 4.1 log. In [8], the “Log inactivation HSV” value is on record as over 6.0 log. Further, in [9], the “Log inactivation Serratia liquifaciens” value amounted to 3.8 log. For the same compound, in assay [10], the “Log inactivation Yersinia enterocolitica” value was 7.4 log. Also, the “Log inactivation Cell-Free HIV” value in assay [11] is over 6.5 log. For the same compound, the “Log inactivation Salmonella choleraesuis” value in [12] is given as 4.8 log. The “Log inactivation Eseherichia coli K12” value in [13] is 7.4 log. Further, the “Log inactivation Bluetongue type 11” value in assay [14] is given as 6.0 log. In addition, the “Log inactivation DHBV” value in assay [15] is reported as over 6.3 log. Further, the “Log inactivation Pseudomonas aeruginosa” value in assay [16] was found to be 4.5 log. The “Log inactivation VSIV” value in assay [17] worked out at 5.7 log. Moreover, the “Log inactivation Bacilus subtilis” value in assay [18] is listed as over 6.3 log. For the same compound, in assay [19], the “Log inactivation RSV” value came to 5.6 log.
